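Five compound concentrations were applied to cells in 96-well plates for 48 hours; endpoints were derived by simple linear interpolation of the resulting dose-response curve. TGI is the concentration that stops growth completely.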 Where only a bound is given, the exact number is not on record here.

Assay in all cases: NCI tumour cell line growth inhibition, 48 h
The test system of assay [1] is A498 renal.
In assay [2] the test system is A549 NSCLC.
In assay [3] the test system is HCC-2998 colon.
The test system of assay [4] is HCT-116 colon.
For assay [5], the system named is HL-60(TB) leukemia.
Assay [6] relates to HT29 colon.
Assay [7] concerns IGROV1 ovarian.
Assay [8] deals with LOX IMVI melanoma.
Assay [9] has as its system MALME-3M melanoma.
Assay [10] has as its system MCF7 breast.
Assay [11] deals with MOLT-4 leukemia.
Assay [12] deals with OVCAR-3 ovarian.
For assay [13], the system named is OVCAR-5 ovarian.
Assay [14] deals with OVCAR-8 ovarian.
The test system of assay [15] is SF-539 CNS.
In assay [16] the test system is SK-OV-3 ovarian.
Assay [17] has as its system SNB-75 CNS.
In assay [18] the test system is U251 CNS.
Assay [19] deals with SK-MEL-5 melanoma.

Take `Cn1c(=O)oc2cc(C(O)CN3CCN(Cc4ccc5c(c4)OCO5)CC3)ccc21` (configuration not stated): the TGI in [1], in [2], in [3], in [4], in [5] and in assay [6] was over 100 µM in each case. Further, the TGI in assay [7], in [8], in assay [9], in [10], in assay [11] and in [12] was over 100 µM throughout. Besides, the TGI in assay [13], in assay [14], in assay [15], in [16], in assay [17] and in assay [18] was over 100 µM throughout.

In the case of `CN1C(=O)C(O)CC1c1ccccc1F` (configuration not stated), the TGI in [1], in assay [2], in assay [3], in [4], in assay [5] and in assay [6] was over 100 µM throughout. In addition, the TGI in assay [7], in assay [8], in assay [9], in [10], in assay [11] and in [12] was over 100 µM throughout. Moreover, the TGI in assay [13], in assay [14], in [15], in [19], in assay [17] and in assay [18] was over 100 µM throughout.

Turning to `S=c1[nH]nc(COc2ccc(Cl)cc2)n1-c1ccccc1`, the TGI in assay [1], in assay [2], in [3], in [4], in [5] and in [6] was over 100 µM throughout. Besides, the TGI in assay [7], in assay [8], in assay [9], in [10], in [11] and in assay [12] was over 100 µM each time. Moreover, the TGI in [13], in assay [14], in assay [15], in assay [16], in assay [17] and in [18] was over 100 µM in each case.

Consider `C[n+]1c(-c2ccc(/C=N\Nc3ccnc(N/N=C/c4ccc(-c5cn6ccsc6[n+]5C)cc4)n3)cc2)cn2ccsc21`, for which the TGI was 54.8 µM in assay [1]; over 100 µM in [2]; 77.2 µM in [3]; 57.4 µM in assay [5]; over 100 µM in [6]; 65.4 µM in [7]. Moreover, the TGI in [9] is 85.4 µM; in assay [10], over 100 µM; in assay [11], over 100 µM; in [12], over 100 µM; in [13], over 100 µM; in [14] it was over 100 µM. The TGI in assay [15] is 70.3 µM; in assay [19], 35.4 µM; in assay [16], over 100 µM; in [17] it was 92.1 µM; in assay [18], 94.5 µM.

Take `OC(Cc1cnnc2ccccc12)C(Cl)(Cl)Cl` (configuration not stated): the TGI in [1], in [2], in assay [3], in [4], in [5] and in assay [6] was over 10 µM each time. For the same molecule, the TGI in assay [7], in assay [8], in assay [9], in assay [10], in [11] and in assay [12] was over 10 µM each time. Besides, the TGI in assay [14], in assay [15], in assay [19], in assay [16], in assay [17] and in assay [18] was over 10 µM in each case.

`COC1(OC)CCCCCCCCC(OC)(OC)CCCCCCCC1`: the TGI in assay [1], in assay [2], in assay [3], in assay [4], in [5] and in assay [6] was over 100 µM each time. In addition, the TGI in assay [7], in [8], in assay [9], in assay [10], in assay [12] and in assay [13] was over 100 µM in each case. Also, the TGI in assay [14], in [15], in [19], in assay [16], in assay [17] and in [18] was over 100 µM each time.

On to `c1ccc(C2(c3cc4ccccc4[nH]3)OCCO2)nc1`, for which the TGI in [1], in assay [2], in [3], in assay [4], in [5] and in assay [6] was over 100 µM each time. Besides, the TGI in [7], in assay [8], in assay [9], in assay [10], in [12] and in assay [13] was over 100 µM each time. In addition, the TGI in assay [14], in assay [15], in assay [19], in assay [16], in assay [17] and in assay [18] was over 100 µM throughout.

`CC1CCC2C(C)C(OC(=O)CCC(=O)O)OC3OC4(C)CCC1C32OO4` (configuration not stated): the TGI in assay [1] is over 100 µM; in [2] it was 29.9 µM; in [3] it was 54.3 µM; in assay [4] it was 16.3 µM; in assay [5], 4.65 µM; in [6], over 100 µM. For the same molecule, the TGI in assay [7] was 23.1 µM; in [8] it was 2.92 µM; in assay [10], 28.5 µM; in [11] it was 15 µM; in [12] it was over 100 µM; in assay [13], 57.8 µM. Besides, the TGI in [14] is over 100 µM; in [15], 29.1 µM; in [19], 17.7 µM; in [16], over 100 µM; in assay [17], over 100 µM; in assay [18] it was 31.3 µM.

On to `O=c1c2c3c(sc2nc2n1sc1nc4sc5c(c4c(=O)n12)CCCC5)CCCC3`, for which the TGI was over 100 µM in assay [1]; over 100 µM in assay [2]; over 76.8 µM in assay [3]; over 100 µM in assay [4]; 62.3 µM in assay [5]; over 58.8 µM in assay [6]. The TGI in assay [7] is over 100 µM; in assay [8], over 100 µM; in assay [10] it was 50.8 µM; in [11], over 66.9 µM; in [12] it was over 62.5 µM; in assay [13] it was over 100 µM. Further, the TGI in assay [14] is over 100 µM; in [15], over 100 µM; in [19], over 100 µM; in assay [16], over 100 µM; in [17], over 32.8 µM; in assay [18], over 100 µM.

As for `CC(C)(C)OC(=O)NC(Cc1ccc(OC(C)(C)C)cc1)C(=O)N[C@H]1CC[C@H](C(=O)O)C1` (some centres not stated), the TGI in assay [1], in [2], in assay [3], in assay [4], in assay [5] and in assay [6] was over 100 µM in each case. Moreover, the TGI in assay [7], in [8], in assay [10], in assay [11], in assay [13] and in [14] was over 100 µM throughout. For the same molecule, the TGI in assay [15], in [19], in assay [16], in [17] and in [18] was over 100 µM each time.

Regarding `c1ccc(CN2C3C4N(Cc5ccccc5)C2C2N(Cc5ccccc5)C(C(N2Cc2ccccc2)N4Cc2ccccc2)N3Cc2ccccc2)cc1`, the TGI in [1], in assay [2], in [3], in [4], in assay [5] and in [6] was over 100 µM throughout. Moreover, the TGI in [7], in [8], in assay [10], in [11], in [12] and in assay [13] was over 100 µM each time. The TGI in assay [14], in assay [15], in assay [19], in assay [16], in assay [17] and in [18] was over 100 µM throughout.

For the molecule `CCOC(=O)/C1=C(\C)N(Cc2ccccc2)C(=O)c2ccccc2C(=O)c2c(OC(C)=O)ccc(OC(C)=O)c21`, the TGI was over 100 µM in [1]; over 100 µM in assay [2]; 37.4 µM in [3]; 79.1 µM in [5]; over 100 µM in assay [6]; over 100 µM in [7]. Further, the TGI in [8] is over 100 µM; in assay [9], over 100 µM; in assay [10], 58.6 µM; in assay [11], over 100 µM; in [12] it was 80.9 µM; in assay [13] it was over 100 µM. For the same molecule, the TGI in assay [14], in [15], in [19], in assay [16], in assay [17] and in assay [18] was over 100 µM each time.

For the molecule `CC(=O)OC[C@@]1(C)[C@@H]2[C@@H]3[C@@]4(CO[C@]3(C)C(=O)[C@@]3(OC(C)=O)C[C@H](C)[C@H](OC(C)=O)[C@@H]3[C@H]4OC(C)=O)[C@H](OC(=O)c3ccccc3)C[C@@H]21`, the TGI in assay [1], in assay [2], in assay [3], in assay [4], in assay [5] and in assay [6] was over 100 µM each time. For the same molecule, the TGI in assay [7], in assay [8], in assay [9], in [10], in [12] and in assay [13] was over 100 µM in each case. In addition, the TGI in assay [14], in assay [15], in assay [19], in assay [16], in assay [17] and in assay [18] was over 100 µM throughout.

In the case of `COC1=CC(=O)C2=C(C1=O)[C@H]1CC[C@]3(C)C(=O)CC[C@H]3[C@@H]1CC2`, the TGI in [1] is over 100 µM; in [2], over 100 µM; in assay [3] it was over 100 µM; in assay [4] it was 34.1 µM; in assay [5] it was 22.4 µM; in assay [6] it was 75.3 µM. The TGI in [7] is 44.5 µM; in assay [8], 35.4 µM; in assay [10], 35.4 µM; in assay [11], over 100 µM; in [12] it was 52.3 µM; in assay [13], 44.6 µM. The TGI in assay [14] is 33.1 µM; in assay [15] it was 38.1 µM; in assay [19] it was 33.2 µM; in assay [16], over 100 µM; in assay [17], over 100 µM; in assay [18], over 100 µM.

With `O=S(=O)(N=[Se](=O)(c1ccccc1)c1ccccc1)c1ccccc1`, the TGI is over 100 µM in assay [1]; over 100 µM in [3]; over 100 µM in assay [4]; 88.1 µM in assay [5]; over 100 µM in assay [6]; over 100 µM in assay [7]. Further, the TGI in assay [8], in assay [10], in [11], in assay [12], in assay [13] and in assay [14] was over 100 µM each time. The TGI in assay [15], in assay [19], in assay [16], in [17] and in assay [18] was over 100 µM each time.
